US11291756B2, “Acoustic separation for bioprocessing” (THE CHARLES STARK DRAPER LABORATORY, INC., priority 2016, dated 2022)

How the values were obtained:
Format in all cases: cell-based
[1] = test system: platelets; assay: Acoustic separation of platelets from lymphocytes in a blood sample pretreated with a platelet activator; settings: adenosine diphosphate 2-50 μM, incubated 10-20 minutes
Description: A blood sample comprising lymphocytes and platelets was subjected to acoustic energy, generally as described above. Prior to flowing the blood sample through a microfluidic separation channel, the blood sample was pretreated by diluting with an additive comprising a platelet activator, adenosine diphosphate. Adenosine diphosphate was added at a concentration of 2-50 μM. The samples were incubated for 10-20 minutes before starting the acoustic separation.

[2] = test system: platelets; assay: Acoustic separation of platelets from lymphocytes in blood buffy coat samples pretreated with a platelet activator
Description: Blood buffy coat samples from 3 donors (comprising lymphocytes and platelets) were subjected to acoustic energy, generally as described above. Prior to flowing the blood buffy coat samples through a microfluidic separation channel, the blood buffy coat samples were pretreated. Experimental samples were treated with 8 μM adenosine diphosphate (ADP) in buffer and control samples were treated with buffer only to a final dilution of approximately 1:3 buffy coat:buffer (about 10^9 cells/ml). The samples were incubated for 5 min before separation. The samples were flowed at 0.1 ml/min through a single polystyrene microchannel mounted on an oscillator using the methods described herein. The acoustic force displaced larger and more dense cells and platelet cell aggregates toward a center outlet (waste) while side outlets collected the lymphocyte-enriched product, generally as shown in FIG. 15. The products were compared to the input solution using both a hematology analyzer (Sysmex Corporation, Kobe, Hyogo Prefecture, Japan) to count cells and ELISA of the platelet-specific glycoprotein IIb/IIIa.

[3] = test system: platelets; assay: Platelet aggregate size produced by ADP; settings: 10 μM ADP

Nc1ncnc2c1ncn2[C@@H]1O[C@H](COP(=O)(O)OP(=O)(O)O)[C@@H](O)[C@H]1O [ADP, adenosine diphosphate]
response of platelets to the acoustic field [1]: responded more strongly to the acoustic field than individual platelets | platelet content by glycoprotein IIb/IIIa assay (ELISA) ([2]; ADP 8 μM): significantly reduced platelet content | reduction of platelet count in the product versus control ([2]; ADP 8 μM): nearly ten-fold | decrease of platelet count in the product compared to the starting material ([2]; ADP 8 μM in buffer, 5 min incubation, buffy coat from 3 donors, hematology analyzer, buffer control 274% increase): 69% | hematocrit of product ([2]; ADP 8 μM, depleted from 10%): 4.5% | platelet depletion on increasing the concentration ([2]; ADP 32 μM versus 8 μM): did not further improve platelet depletion | platelet contamination in the collected lymphocytes compared to controls ([2]; ADP versus buffer-only controls): strongly reduced platelet contamination | increase of lymphocyte purity ([2]; with or without ADP added, input 41% to output 84%): 104% | lymphocyte output purity ([2]; with or without ADP added, input purity 41%): 84 % WBC | diameter of platelet aggregates [3]: about 10 μm
